# Test results taken from patent US10159640B2, “Prebiotic oral care compositions containing amino acids” (COLGATE-PALMOLIVE COMPANY, priority 2013, dated 2018).
# Columns and labels:
# Format in all cases: cell-based
# [1] = test system: beneficial oral bacteria and pathogenic oral bacteria; test: Metabolic activity, whole panel: prebiotic effect; conditions: threshold value of 2
# Summary of the method: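 Biolog phenotype microarrays with dipeptide-preloaded wells; each species suspended in IF-0 with Redox Dye Mix D (85% transmittance) plus succinate/ferric citrate, incubated anaerobically at 37° C. Tetrazolium reduction read at 492 nm at 24 and 48 h versus no-dipeptide controls; values are means of three biological replicates.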
# [2] = test system: Actinomyces naeslundii; test: Biofilm growth assay in BHI, crystal violet; conditions: control = 1
# Method: (§1) The increase in biofilm formation of the tested bacteria in response to selected compounds (Met-Pro, Phe-Glu) was investigated by setting up biofilm growth assays in a nutritionally rich medium (brain heart infusion broth (BHI), Oxoid), over 48 hours. Late exponential growth phase liquid cultures were prepared by transferring the respective bacterium from blood agar plates to BHI and overnight incubation at 37° C. in an anaerobic atmosphere for A. viscosus, V. parvula, F. nucleatum, P. gingivalis, P. intermedia, T. forsythia, A. naeslundii, and C. sputigena, and in a 5% CO2 environment for S. salivarius, S. sanguinis, S. mitis, A. actinomycetemcomitans, S. mutans, and S. gordonii. Overnight cultures were transferred to BHI and adjusted to a concentration of 1×10^7 CFU/ml by measuring the optical density at 600 nm (OD600) (BioRad SmartSpec 3000). For each strain, 200 μl of the bacterial suspension was added to a 96-well plate containing 20 μl of the respective di-peptides. Final concentrations of the di-peptides were set to 5, 10, 20 and 25 μmol/ml. […] Additionally, for each bacterium tested, a background control, to correct for background staining, was added. This background control contained the bacterium tested and 0.03 weight % chlorhexidine, as an antiseptic. Plates were incubated as previously described. After 48 hrs the supernatant was removed from the wells of the plates. The wells were washed twice with 1×100 μL PBS (phosphate buffered saline), fixed for 20 minutes with 96% vol. ethanol (96% vol. solution in water) and the biofilm retained at the bottom of the wells was stained with 1 weight % crystal violet (1 weight % solution in water). The bound dye was dissolved with 5% vol. acetic acid (5% vol. solution in water). Quantification of the stained biofilm was performed by measuring the absorbance at 630 nm using a Multiskan Ascent microplate reader (Thermo Scientific).
# (§2) The experiment was carried out on three different days (thus providing 3 biological replicas) and each day the experiment was carried out in quadruple (thus providing 4 technical replicas) for each combination of bacterium with dipeptide and for each control. For each day and for each combination, the average (mean) of the values obtained (as detailed above) for the four technical replicas was calculated to provide a single value for each combination on each day. The values shown in Tables 7 to 8, below, are the average (mean) of the three single values obtained for each combination of bacterium with dipeptide.
# [3] = test system: Actinomyces viscosus; test: Biofilm growth assay in BHI, crystal violet; conditions: control = 1
# Method: as §1, §2
# [4] = test system: Fusobacterium nucleatum; test: Biofilm growth assay in BHI, crystal violet; conditions: control = 1
# Method: as §1, §2
# [5] = test system: Streptococcus mutans; test: Biofilm growth assay in BHI, crystal violet; conditions: control = 1
# Method: as §1, §2
# [6] = test system: Tannerella forsythia; test: Biofilm growth assay in BHI, crystal violet; conditions: control = 1
# Method: as §1, §2
# [7] = test system: Aggregatibacter actinomycetemcomitans; test: Biofilm growth assay in BHI, crystal violet; conditions: control = 1
# Method: as §1, §2
Substance,prebiotic effects (metabolic activity) ([1]; 24 hrs),prebiotic effects (metabolic activity) ([1]; 48 hrs),biofilm growth: OD 630 nm (crystal violet) at 48 hrs divided by OD of control ([2]; 5 μmol/ml),biofilm growth: OD 630 nm (crystal violet) at 48 hrs divided by OD of control ([2]; 10 μmol/ml),biofilm growth: OD 630 nm (crystal violet) at 48 hrs divided by OD of control ([2]; 20 μmol/ml),biofilm growth: OD 630 nm (crystal violet) at 48 hrs divided by OD of control ([2]; 25 μmol/ml),biofilm growth: OD 630 nm (crystal violet) at 48 hrs divided by OD of control ([3]; 5 μmol/ml),biofilm growth: OD 630 nm (crystal violet) at 48 hrs divided by OD of control ([3]; 10 μmol/ml),biofilm growth: OD 630 nm (crystal violet) at 48 hrs divided by OD of control ([3]; 20 μmol/ml),biofilm growth: OD 630 nm (crystal violet) at 48 hrs divided by OD of control ([3]; 25 μmol/ml),biofilm growth: OD 630 nm (crystal violet) at 48 hrs divided by OD of control ([4]; 5 μmol/ml),biofilm growth: OD 630 nm (crystal violet) at 48 hrs divided by OD of control ([4]; 10 μmol/ml),biofilm growth: OD 630 nm (crystal violet) at 48 hrs divided by OD of control ([4]; 20 μmol/ml),biofilm growth: OD 630 nm (crystal violet) at 48 hrs divided by OD of control ([4]; 25 μmol/ml),biofilm growth: OD 630 nm (crystal violet) at 48 hrs divided by OD of control ([5]; 5 μmol/ml),biofilm growth: OD 630 nm (crystal violet) at 48 hrs divided by OD of control ([5]; 10 μmol/ml),biofilm growth: OD 630 nm (crystal violet) at 48 hrs divided by OD of control ([5]; 20 μmol/ml),biofilm growth: OD 630 nm (crystal violet) at 48 hrs divided by OD of control ([5]; 25 μmol/ml),biofilm growth: OD 630 nm (crystal violet) at 48 hrs divided by OD of control ([6]; 5 μmol/ml),biofilm growth: OD 630 nm (crystal violet) at 48 hrs divided by OD of control ([6]; 10 μmol/ml),other results
Phe-Glu,exhibited prebiotic effects,exhibited prebiotic effects,0.9914,0.4234,0.0174,0.0067,1.3972,1.2242,0.0684,0.0490,0.2553,0.2232,0.0056,0.0112,0.0781,0.5693,1.2009,0.4072,0.5744,0.3083,biofilm growth: OD 630 nm (crystal violet) at 48 hrs divided by OD of control ([6]; 20 μmol/ml): 0.0188; biofilm growth: OD 630 nm (crystal violet) at 48 hrs divided by OD of control ([6]; 25 μmol/ml): 0.0254; biofilm growth: OD 630 nm (crystal violet) at 48 hrs divided by OD of control ([7]; 5 μmol/ml): 0.5867; biofilm growth: OD 630 nm (crystal violet) at 48 hrs divided by OD of control ([7]; 10 μmol/ml): 0.3454; biofilm growth: OD 630 nm (crystal violet) at 48 hrs divided by OD of control ([7]; 20 μmol/ml): 0.0481; biofilm growth: OD 630 nm (crystal violet) at 48 hrs divided by OD of control ([7]; 25 μmol/ml): 0.0212
Met-Pro,exhibited prebiotic effects,exhibited prebiotic effects,1.1703,0.9986,0.4130,0.1281,0.4286,0.4021,0.1766,0.0355,0.6087,0.5568,0.6796,0.5216,0.0252,0.0118,0.9625,1.3235,0.4857,0.4691,biofilm growth: OD 630 nm (crystal violet) at 48 hrs divided by OD of control ([6]; 20 μmol/ml): 0.2726; biofilm growth: OD 630 nm (crystal violet) at 48 hrs divided by OD of control ([6]; 25 μmol/ml): 0.1909; biofilm growth: OD 630 nm (crystal violet) at 48 hrs divided by OD of control ([7]; 5 μmol/ml): 0.8177; biofilm growth: OD 630 nm (crystal violet) at 48 hrs divided by OD of control ([7]; 10 μmol/ml): 0.5095; biofilm growth: OD 630 nm (crystal violet) at 48 hrs divided by OD of control ([7]; 20 μmol/ml): 0.2556; biofilm growth: OD 630 nm (crystal violet) at 48 hrs divided by OD of control ([7]; 25 μmol/ml): 0.1103
